# According to patent US11702409B2, “Pyrazolyl derivatives useful as anti-cancer agents” (NOVARTIS AG, priority 2019, dated 2023):
# Where two headings read alike, the source gives them in different places.
# How the values were obtained:
# [1] = biological target: KRasG12C (M1-K169, biotinylated on the N-terminus) (Homo sapiens (Human), UniProt P01116, G12C); assay: Covalent competition assay (scintillation proximity assay, competition with radiolabeled covalent probe Compound B); assay type: binding
# Summary of the method: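 Biotinylated KRasG12C (M1-K169):GDP incubated 2 h with agitation with serially diluted compounds premixed with a fixed concentration of radiolabeled covalent probe; scintillation proximity read-out of competition for covalent modification. Buffer 20 mM Tris-HCl pH 7.5, 150 mM NaCl, 0.1 mM MgCl2, 0.01% Tween-20. IC50 from 4-parameter fit.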
# [2] = biological target: KRasG12C (Homo sapiens (Human), UniProt P01116, G12C); assay: MS-based assay (% modification for a range of compound concentrations and time points); assay type: biochemical; conditions: internally determined, non-labeled ligand; read-out: (kinact/KI)probe, second order rate constant for modification of KRasG12C
# [3] = in vitro KRASG12C activity, 10 nM KRasG12C:GDP, 25 nM radio-ligand and 475 nM unlabelled ligand, incubated 2 hours, read-out: Covalent Competition Assay IC50
structure (smiles),measurement,setting,value
"C=CC(=O)Nc1ccc(-n2c(C)c(-c3c(C)ccc4[nH]ncc34)c3cccnc32)c(F)c1 [Compound A, N-(3-fluoro-4-(2-methyl-3-(5-methyl-1H-indazol-4-yl)-1H-pyrrolo[2,3-b]pyridin-1-yl)phenyl)acrylamide, reference compound]",IC50,"[1]; covalent competition SPA assay, KRASG12C, read-out: IC50, titration of the non-labelled version of the probe",0.5 µM
same,kinact/KI,[2],~5000 M⁻¹ s⁻¹
"C=CC(=O)N1CC2(CC(n3nc(-c4ccc5c(c4)CN(C)C(=O)C5)c(-c4c(Cl)c(C)cc5[nH]ncc45)c3C)C2)C1 (single isomer, unassigned) [Example 21b]",IC50,[1]; [3],15 µM
"C=CC(=O)N1CC2(CC(n3nc(-c4ccc5c(cnn5CCN5CCOCC5)c4)c(-c4c(Cl)c(C)cc5[nH]ncc45)c3C)C2)C1 (single isomer, unassigned) [Example 17b]",IC50,[1]; [3],14.6 µM
"C=CC(=O)N1CC2(CC(n3nc(-c4ccc5c(cnn5CCO)c4)c(-c4c(Cl)c(C)cc5[nH]ncc45)c3C)C2)C1 (single isomer, unassigned) [Example 83b, 1-(6-(4-(5-chloro-6-methyl-1H-indazol-4-yl)-3-(1-(2-hydroxyethyl)-1H-indazol-5-yl)-5-methyl-1H-pyrazol-1-yl)-2-azaspiro[3.3]heptan-2-yl)prop-2-en-1-one]",IC50,[1]; [3],4 µM
"C=CC(=O)N1CC2(CC(n3nc(-c4ccncc4C)c(-c4c(Cl)c(C)cc5[nH]ncc45)c3C)C2)C1 (single isomer, unassigned) [Example 49b, 1-(6-(4-(5-chloro-6-methyl-1H-indazol-4-yl)-5-methyl-3-(3-methylpyridin-4-yl)-1H-pyrazol-1-yl)-2-azaspiro[3.3]heptan-2-yl)prop-2-en-1-one]",IC50,[1]; [3],5.38 µM
"C=CC(=O)N1CC2(CC(n3nc(-c4ccnn4CC4CC4)c(-c4c(Cl)c(C)cc5[nH]ncc45)c3C)C2)C1 (single isomer, unassigned) [Example 45b, 1-(6-(4-(5-chloro-6-methyl-1H-indazol-4-yl)-2′-(cyclopropylmethyl)-5-methyl-1H,2′H-[3,3′-bipyrazol]-1-yl)-2-azaspiro[3.3]heptan-2-yl)prop-2-en-1-one]",IC50,[1]; [3],> 50 µM
"C=CC(=O)N1CC2(CC(n3nc(-c4ccccn4)c(-c4c(Cl)c(C)cc5[nH]ncc45)c3C)C2)C1 (single isomer, unassigned) [Example 46a, 1-(6-(4-(5-chloro-6-methyl-1H-indazol-4-yl)-5-methyl-3-(pyridin-2-yl)-1H-pyrazol-1-yl)-2-azaspiro[3.3]heptan-2-yl)prop-2-en-1-one]",IC50,[1]; [3],0.423 µM
"C=CC(=O)N1CC2(CC(n3nc(-c4ccc(C(=O)O)cc4)c(-c4c(Cl)c(C)cc5[nH]ncc45)c3C)C2)C1 (single isomer, unassigned) [Example 68a]",IC50,[1]; [3],0.059 µM
"C=CC(=O)N1CC2(CC(n3nc(-c4cnc(N)c(F)c4)c(-c4c(Cl)c(C)cc5[nH]ncc45)c3C)C2)C1 (single isomer, unassigned) [Example 20a]",IC50,[1]; [3],0.148 µM
"C=CC(=O)N1CC2(CC(n3nc(-c4ccc(-n5nccc5N)nc4)c(-c4c(Cl)c(C)cc5[nH]ncc45)c3C)C2)C1 (single isomer, unassigned) [Example 7b]",IC50,[1]; [3],> 5 µM
"C=CC(=O)N1CC2(CC(n3nc(-c4ccc5c(cnn5CCO)c4)c(-c4c(Cl)c(C)cc5[nH]ncc45)c3C)C2)C1 (single isomer, unassigned) [Example 83a, 1-(6-(4-(5-chloro-6-methyl-1H-indazol-4-yl)-3-(1-(2-hydroxyethyl)-1H-indazol-5-yl)-5-methyl-1H-pyrazol-1-yl)-2-azaspiro[3.3]heptan-2-yl)prop-2-en-1-one]",IC50,[1]; [3],0.018 µM
"C=CC(=O)N1CC2(CC(n3nc(-c4ccc5c(cnn5CCN(C)C)c4)c(-c4c(Cl)c(C)cc5[nH]ncc45)c3C)C2)C1 (single isomer, unassigned) [Example 15a]",IC50,[1]; [3],0.016 µM
"C=CC(=O)N1CC2(CC(n3nc(-c4ccc5c(c4)CN(C)C5)c(-c4c(Cl)c(C)cc5[nH]ncc45)c3C)C2)C1 (single isomer, unassigned) [Example 75a]",IC50,[1]; [3],0.251 µM
"C=CC(=O)N1CC2(CC(n3nc(-c4cnc(N)c(F)c4)c(-c4c(Cl)c(C)cc5[nH]ncc45)c3C)C2)C1 (single isomer, unassigned) [Example 20b]",IC50,[1]; [3],12.5 µM
"C=CC(=O)N1CC2(CC(n3nc(-c4ccc5nn(CC(C)(C)O)cc5c4)c(-c4c(Cl)c(C)cc5[nH]ncc45)c3C)C2)C1 (single isomer, unassigned) [Example 42a, 1-(6-{(4M)-4-(5-Chloro-6-methyl-1H-indazol-4-yl)-3-[2-(2-hydroxy-2-methylpropyl)-2H-indazol-5-yl]-5-methyl-1H-pyrazol-1-yl}-2-azaspiro[3.3]heptan-2-yl)prop-2-en-1-one]",IC50,[1]; [3],0.012 µM
"C=CC(=O)N1CC2(CC(n3nc(-c4ccc5c(cnn5CCN(C)C)c4)c(-c4c(Cl)c(C)cc5[nH]ncc45)c3C)C2)C1 (single isomer, unassigned) [Example 15b]",IC50,[1]; [3],4.8 µM
"C=CC(=O)N1CC2(CC(n3nc(-c4ccc(O)cc4F)c(-c4c(Cl)c(C)cc5[nH]ncc45)c3C)C2)C1 (single isomer, unassigned) [Example 58a]",IC50,[1]; [3],0.064 µM
"C=CC(=O)N1CC2(CC(n3nc(-c4ccc(C(=O)NCCOC)cc4)c(-c4c(Cl)c(C)cc5[nH]ncc45)c3C)C2)C1 (single isomer, unassigned) [Example 62a, 4-(1-(2-acryloyl-2-azaspiro[3.3]heptan-6-yl)-4-(5-chloro-6-methyl-1H-indazol-4-yl)-5-methyl-1H-pyrazol-3-yl)-N-(2-methoxyethyl)benzamide]",IC50,[1]; [3],0.045 µM
"C=CC(=O)N1CC2(CC(n3nc(-c4ccc5c(c4)C(=O)OC5)c(-c4c(Cl)c(C)cc5[nH]ncc45)c3C)C2)C1 (single isomer, unassigned) [Example 54b]",IC50,[1]; [3],> 50 µM
"C=CC(=O)N1CC2(CC(n3nc(-c4ccc(CO)cc4)c(-c4c(Cl)c(C)cc5[nH]ncc45)c3C)C2)C1 (single isomer, unassigned) [Example 47a, 1-(6-{(4M)-4-(5-Chloro-6-methyl-1H-indazol-4-yl)-3-[4-(hydroxymethyl)phenyl]-5-methyl-1H-pyrazol-1-yl}-2-azaspiro[3.3]heptan-2-yl)prop-2-en-1-one]",IC50,[1]; [3],0.043 µM
"C=CC(=O)N1CC2(CC(n3nc(-c4cnc5c(c4)ncn5C)c(-c4c(Cl)c(C)cc5[nH]ncc45)c3C)C2)C1 (single isomer, unassigned) [Example 38b]",IC50,[1]; [3],> 50 µM
